Experimental data as given in US9597402B2, “Sustained release small molecule drug formulation” (DURECT CORPORATION, priority 2005, dated 2017).

Columns and labels:
[1] = Solubility in benzyl alcohol (BA); conditions: temperature not given
Source text: (§1) In one embodiment, a small molecule drug formulation includes a small molecule psychotherapeutic drug, such as a small molecule antipsychotic, dopamine receptor agonist, dopamine receptor antagonist, serotonin receptor agonist, serotonin receptor antagonist, and serotonin uptake inhibitor drug. […] R209130-base has the molecular formula C19H20FNO. R209130-mandelic acid salt (R209130) has the molecular formula C19H20FNO.C8H8O3. R209130-tartaric acid salt (R167154) has the molecular formula C19H20FNO.C4H6O6.

[2] = Solubility at pH 7; conditions: cell states pH 7.2
Source text: as §1

[3] = Solubility in benzyl benzoate (BB); conditions: temperature not given
Source text: as §1

[4] = Solubility in H2O; conditions: pH 7.2
Source text: as §1

[5] = Intrinsic dissolution rate; format: physicochemical
Source text: as §1

**Q.** What does the source list for `Cc1nc2n(c(=O)c1CCN1CCC(c3noc4cc(F)ccc34)CC1)CCCC2` [Risperidone pamoate, Risperidone-pamoate]?
**A.** Solubility in BA [1]: 2970 µg/mL; Solubility at pH 7 [2]: 0.2 (pH 7.2) mg/ml; Solubility in BB [3]: 50 µg/mL; Solubility in H2O [4]: 0.2 (pH 7.2) mg/ml

**Q.** Which Intrinsic dissolution rate [5] does the source give for `Cc1nc2n(c(=O)c1CCN1CCC(c3noc4cc(F)ccc34)CC1)CCCC2` [Risperidone base, Risperidone] here?
**A.** 0.0025 mg/cm^2 · min
